The text below walks through data of patent US9040586B2, “Veterinary compositions for controlling ecto- and endoparasites in bovines, use of these compositions, use of IGR substances associated with microminerals, method for controlling ecto- and endoparasites in bovines and kit” (Champion Farmoquimico Ltda., priority 2012, dated 2015).

The conditions of series [1]: cited from earlier work.
The conditions of series [2]: cited from earlier work. The source holds these as a separate data set.
Series [3] concerns Haematobia irritans. The series is described as follows: Haematobia irritans in vitro test: eggs developed in feces of treated cattle. Type of series: in vivo. As to conditions: 20 days. The method, then: In order to evaluate the efficacy of Diflubenzuron over H. irritans larval development, without possible interference of climate changes, an experiment was conducted under controlled conditions.
Adult horn flies over untreated animals were captured with a net and then shipped to the Tropical Pathology and Public Health Institute (IPTSP/GO) in order to obtain the eggs. The flies were put on cages lined with moist coffee filter as a substrate for oviposition. The filter was inspected every three hours for eggs. Those were subject to analysis regarding viability and transferred to a vessel containing feces from 4 animals among the control and diflubenzuron treated groups, randomly chosen, each containing 50 viable eggs. These containers with feces were maintained in a B.O.D. incubator with constant temperature (25° C.) and under photoperiod of 12 hours, for a 20 day period, at the end of which was noted an end to the hatching of eggs.
Both groups—T0 e T1—, were statistically compared by the Mann-Whitney test, with P adjusted in 0.05 due to the impossibility of testing distribution normality, given the low number of repetitions (n=4).

Series [4] relates to Haematobia irritans. Description: Haematobia irritans field test: horn fly counts on calves. Type of series: in vivo. The method, then: The experiment was conducted at Fazenda Santo Amaro in the city of Ouro Verde de Goiás—GO, Brazil, between October 2011 and January 2012, on 20 calves aged 12-16 months and weigh between 147 and 305 kg, divided in control group (T0) and treated group (T1).
The animals were weighed, identified and kept on Brachiaha brizantha pasture with “ad libitum” access to drinking water troughs. The control group received “ad libitum” minerals (T0), while the treated group received a micromineral mixture containing iron, copper, manganese, iodine, cobalt, zinc, selenium and chromium added to rock salt. Diflubenzuron was added to this mixture in the following proportion: 1.1 g per kilo of the mixture. A macromineral source was offered separately in the trough.
In order to determine the number of horn flies, ticks and helminth eggs per gram of feces, as well as periodic weighing, the animals were handled in a 30 day basis.
The animals were lead to the corral for the initial counting of the total number of horn flies in the cervical and lumbar regions.
The field experiment was conducted during the summer, a critical period for horn fly infestations in Brazil (BIANCHIN et al., 2004). […]
At the end of the experimental period, the animals were lead to the containment chute to have the flies counted. […]

The subject of series [5] is Rhipicephalus (Boophilus) microplus. The series is described as follows: Rhipicephalus (Boophilus) microplus challenge: engorged female weight and oviposition. Type of series: in vivo, calves. As to conditions: treated group. As for the experimental part: For this challenge, 5 animals were randomly selected from each group. Animals from both control and treated groups were transferred to individual tick-free pens with wooden tiled floor, where they remained for 21 days until the engorged females dropped to the ground. Those were collected on a daily basis for a 5 day period, and put on plastic vessels, formerly washed and dried with paper towels. After the engorged ticks were weighed, they're put on Petri dishes and then into a B.O.D. incubator for two weeks, under 27° C. and relative humidity over 85% (SANTOS e FURLONG, 2002; PEREIRA, 2006).
After this period, oviposition in each of the Petri dishes were weighed and transferred to assay tubes (15 cm high and with a 15 mm diameter each) sealed with cotton. The assays tubes were labeled and then returned to the B.O.D. incubator, under the same conditions described above, up to the larval emergence.

Series [6] relates to gastrointestinal nematodes of cattle. As to conditions: 19 of the 23 farms; cited from earlier work.

Take `Cc1ccc(N=c2sccn2C)c(C)c1` [Cymiazoles]: the “withdrawal prior to slaughter” value in series [1] (beef cattle) was 3 days. Also, in series [1] (milk / lactating cows, in words, table cells wrap over 4 rows: 'Do not apply on lactating cows'), the “Withdrawal period Milk” value is reported as “no withdrawn period needed”.
Consider `CC1(C)C(C=C(Cl)Cl)C1C(=O)OC(C#N)c1cccc(Oc2ccccc2)c1` (stereo not drawn) [Cypermethrin], for which the “Oral LD50” value in series [2] is listed as 250 mg/kg.
For the compound `CC1(C)[C@H](C(=O)O[C@H](C#N)c2cccc(Oc3ccccc3)c2)[C@@H]1C=C(Br)Br` [Deltamethrin], the “Oral LD50” value in series [2] is 130 mg/kg.
Consider `O=C(NC(=O)c1c(F)cccc1F)Nc1ccc(Cl)cc1` [Diflubenzuron, 1-(4-chloridephenyl)-3-(2,6-difulorobenzoyl)urea], for which the hatching average in the series on Haematobia irritans [3] (50 viable eggs per container, feces of treated cattle, 25° C., control 43±4.1633) was 0.5±0.1. The “calculated efficiency, based on the control group” value in the series with Haematobia irritans [3] (in vitro, method of HOLDSWORTH et al., 2006) is 98.83%. Moreover, in the series on Haematobia irritans [4], the “reduction on horn fly numbers on the treated group” value is recorded as “higher than 99%”. The “average engorged female ticks' weight” value in series [5] (control 278 mg) came out at 153 mg. Further, the “weight of collected engorged ticks” value in series [5] (control 260-295 mg) was 145 to 165 mg. For the same compound, the “average egg laying of the female” value in series [5] (control 2,600) is 900 eggs. The median lethal dose in series [2] (in vivo) is 4,640 mg/kg.
In the case of `N#Cc1nn(-c2c(Cl)cc(C(F)(F)F)cc2Cl)c(N)c1[S+]([O-])C(F)(F)F` (stereo not drawn) [Fipronil], the “Oral LD50” value in series [2] was 97 mg/kg.
With Abamectin, in series [2], the “Oral LD50” value is 10 mg/kg.
Take Ivermectin: in series [2], the “Oral LD50” value is recorded as 52 mg/kg. In addition, the “reductions in FEC” value in series [6] is given as < 50%.
